Data set [1] deals with Prolyl endopeptidase, Prolyl Oligopeptidase (hPREP) (Homo sapiens (Human), UniProt P48147). Nature of the data set: hPrep inhibition assay. Type of data set: biochemical. The settings on record: hPREP 0.6 nM, Z-Gly-Pro-amino-methylcoumarin 50 μM; read-out: PREP IC50. In short, it runs like this: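 Fluorogenic read-out (340 nm excitation, 460 nm emission) after 20 min at rt, using 50 μM final Z-Gly-Pro-aminomethylcoumarin and 0.6 nM final enzyme, following 15 min compound preincubation. Buffer pH 7.5 with glutathione and Triton X-100. IC50 via one-site model on % inhibition vs log concentration.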

For a further data set, the target named is FAP (Homo sapiens (Human), UniProt Q12884). Kind of data set: hFAP inhibition assay. Type of data set: biochemical. The following applies: Ala-Pro-AMC 20 μM, n = 1 or geometric mean n = 2-3. On the procedure:
384 low volume black plates (Greiner #784076) were used. 4 μL, 0.48 nM enzyme solution (100 mM Tris HCl, 100 mM NaCl, 0.05% Chaps, pH 7.4) was added to 40 nL compounds (in DMSO) at 10 CR, 3 fold dilution series from 50 μM FAC. Plates were incubated for 15 min at rt in dark. 4 μL, 40 μM substrate solution (100 mM Tris HCl, 100 mM NaCl, 0.05% Chaps, pH 7.4) was added to each well. Plates were centrifuged at 1000 rpm and incubated for 30 min at rt in dark. The plates were read on a PHERAstar® reader with excitation 340 nm and emission 460 nm. Data were analyzed in Genedata Screener®. IC50 values were determined by plotting % inhibition versus log compound concentration and using a one site dose response model.

The next data set deals with hFAP (M39-A757) (Homo sapiens (Human), UniProt Q12884). Kind of data set: hFAP binding assay (surface plasmon resonance). The settings on record: SPR, 20° C.; for hFAP Binding assay k(off) / hFAP Binding assay k(on): single cycle kinetics; for Kd: n = 1 or geometric mean n = 2-4. On the technique in general: In SPR one partner is held on a chip, and binding of the other changes the refractive index at the surface.

The nature of a further data set: Kinetic solubility. The following applies: kinetic from dmso stock.
The target in data set [2] is human Fibroblast activation protein alpha (hFAP) (Homo sapiens (Human), UniProt Q12884). Kind of data set: hFAP inhibition assay (tight binders). Also: hFAP 2.4 pM. The following applies: Ala-Pro-AMC 20 μM, n = 1 or geometric mean n = 2-6. Type of data set: biochemical. On the procedure:
The plates were read on a PHERAstar® reader with excitation 340 nm and emission 460 nm. Data were analyzed in Genedata Screener®. IC50 values were determined by plotting % inhibition versus log compound concentration and using a one site dose response model.

A short description of data set [3]: Metabolic stability in rat hepatocytes (rHep). The following applies: n = 1 or geometric mean of n = 2-3.
Data set [4] is described as follows: Metabolic stability in human liver microsomes (HLM). The following applies: human. In general terms: Microsomes from liver hold many membrane-bound enzymes, among them those of drug oxidation.
Method: Metabolic stability in HLM was measured as described in J Comput Aided Mol Des 2015, 29, 795.
Setting [5] is: Solubility, kinetic solubility, n = 1 or average of n = 2-3.
The mark [6] stands for this setting: HLM CLint, n = 1 or average of n = 2-3.

Each structure is given as a SMILES string. In brackets after ≈: the same amount, converted by molar mass.

Chain of Prolyl endopeptidase, Prolyl Oligopeptidase (hPREP) (P48147 whole entry): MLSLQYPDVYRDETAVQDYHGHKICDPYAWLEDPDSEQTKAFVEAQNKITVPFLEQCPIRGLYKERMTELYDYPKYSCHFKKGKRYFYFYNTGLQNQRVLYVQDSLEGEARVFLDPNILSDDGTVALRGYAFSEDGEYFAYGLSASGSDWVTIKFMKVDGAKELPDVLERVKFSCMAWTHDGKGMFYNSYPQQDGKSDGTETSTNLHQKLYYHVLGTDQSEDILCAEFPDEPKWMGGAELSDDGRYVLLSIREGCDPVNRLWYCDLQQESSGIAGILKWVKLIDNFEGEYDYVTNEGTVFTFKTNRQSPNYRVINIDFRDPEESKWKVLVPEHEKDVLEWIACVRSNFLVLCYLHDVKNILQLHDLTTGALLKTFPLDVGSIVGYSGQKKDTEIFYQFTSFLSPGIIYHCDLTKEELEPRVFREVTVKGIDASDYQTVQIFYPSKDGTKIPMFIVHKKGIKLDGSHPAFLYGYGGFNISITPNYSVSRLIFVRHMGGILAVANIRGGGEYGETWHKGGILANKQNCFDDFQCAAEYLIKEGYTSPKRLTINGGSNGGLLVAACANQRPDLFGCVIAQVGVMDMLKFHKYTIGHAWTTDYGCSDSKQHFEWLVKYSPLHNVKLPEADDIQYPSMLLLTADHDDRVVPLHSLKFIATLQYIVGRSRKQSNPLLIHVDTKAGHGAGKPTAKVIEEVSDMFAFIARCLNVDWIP
Chain of human Fibroblast activation protein alpha (hFAP) (Q12884 38-760): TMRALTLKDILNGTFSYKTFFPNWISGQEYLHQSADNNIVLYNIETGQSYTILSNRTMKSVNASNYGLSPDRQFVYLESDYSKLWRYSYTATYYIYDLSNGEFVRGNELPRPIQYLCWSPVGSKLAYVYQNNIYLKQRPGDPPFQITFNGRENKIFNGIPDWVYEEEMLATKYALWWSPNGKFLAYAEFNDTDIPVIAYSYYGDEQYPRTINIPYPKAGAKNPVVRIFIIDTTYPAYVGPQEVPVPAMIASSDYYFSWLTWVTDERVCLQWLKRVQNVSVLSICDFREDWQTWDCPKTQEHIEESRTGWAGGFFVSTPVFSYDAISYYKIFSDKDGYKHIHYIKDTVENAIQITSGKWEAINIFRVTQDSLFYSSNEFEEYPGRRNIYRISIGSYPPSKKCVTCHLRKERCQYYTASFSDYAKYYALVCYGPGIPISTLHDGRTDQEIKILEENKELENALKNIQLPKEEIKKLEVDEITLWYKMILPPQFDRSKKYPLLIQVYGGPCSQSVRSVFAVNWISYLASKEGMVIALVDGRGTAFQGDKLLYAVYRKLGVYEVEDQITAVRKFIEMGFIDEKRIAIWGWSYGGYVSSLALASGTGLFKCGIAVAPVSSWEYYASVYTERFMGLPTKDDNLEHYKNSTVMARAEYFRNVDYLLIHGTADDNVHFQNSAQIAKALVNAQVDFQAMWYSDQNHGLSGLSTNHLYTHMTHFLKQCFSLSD
Chain of FAP (Q12884 38-760): as above
Chain of hFAP (M39-A757) (Q12884 39-757): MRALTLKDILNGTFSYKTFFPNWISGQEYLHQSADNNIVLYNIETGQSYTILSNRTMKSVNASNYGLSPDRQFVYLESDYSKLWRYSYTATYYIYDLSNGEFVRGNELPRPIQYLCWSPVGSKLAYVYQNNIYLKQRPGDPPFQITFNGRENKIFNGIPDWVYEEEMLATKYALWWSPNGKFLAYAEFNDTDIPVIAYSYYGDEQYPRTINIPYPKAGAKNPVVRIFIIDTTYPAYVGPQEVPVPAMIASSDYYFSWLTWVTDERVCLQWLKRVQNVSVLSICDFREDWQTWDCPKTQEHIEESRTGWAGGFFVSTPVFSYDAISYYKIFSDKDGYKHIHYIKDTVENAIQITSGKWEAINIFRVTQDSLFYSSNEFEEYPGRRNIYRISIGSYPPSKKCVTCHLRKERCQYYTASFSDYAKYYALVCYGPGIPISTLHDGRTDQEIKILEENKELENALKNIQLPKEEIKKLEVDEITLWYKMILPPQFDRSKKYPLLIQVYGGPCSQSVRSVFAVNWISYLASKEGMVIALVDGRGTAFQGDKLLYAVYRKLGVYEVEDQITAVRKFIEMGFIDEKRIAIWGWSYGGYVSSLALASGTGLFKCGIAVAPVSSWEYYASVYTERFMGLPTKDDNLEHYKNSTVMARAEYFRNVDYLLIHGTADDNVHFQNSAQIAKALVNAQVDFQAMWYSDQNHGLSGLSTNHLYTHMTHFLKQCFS
Method for Kinetic solubility: Kinetic solubility was measured as described in Comput Aided Mol Des 2015, 29, 795.

In the case of `N#C[C@@H]1CSCN1C(=O)CNC(=O)c1ccnc2ccc(N3CC[C@@H](F)C3)cc12` [Example 52, N-(2-((R)-4-Cyanothiazolidin-3-yl)-2-oxoethyl)-6-((R)-3-fluoropyrrolidin-1-yl)quinoline-4-carboxamide], in data set [1], the IC50 turned out to be 400 nM. On FAP (hFAP […]), this compound returned an IC50 of 0.2 nM. In addition, on hFAP (M39-A757), the “hFAP Binding assay k(off)” value worked out at 0.00019 s⁻¹, the “hFAP Binding assay k(on)” value was 6800000 M⁻¹ s⁻¹ and the Kd was 0.044 nM. The compound further gave a solubility in “Kinetic solubility” (setting [5]) of 57 µM (≈ 23.6 µg/mL). The same compound showed an IC50 in data set [2] of 0.045 nM. The “rHep CLint” value in data set [3] is reported as 21 μL/min/1E6. The compound further returned a microsomal CLint in data set [4] (setting [6]) of 22 µL/min/mg.
Regarding `N#C[C@@H]1CSCN1C(=O)CNC(=O)c1ccnc2ccc(N3CCCC[C@H](F)C3)cc12` [Example 60, N-(2-((R)-4-Cyanothiazolidin-3-yl)-2-oxoethyl)-6-((S)-3-fluoroazepan-1-yl)quinoline-4-carboxamide], the 50% inhibitory concentration (IC50) in data set [1] stood at 86 nM; on FAP (hFAP […]) it was 0.22 nM; in data set [2], 0.14 nM. The “hFAP Binding assay k(off)” value on hFAP (M39-A757) was 0.00017 s⁻¹. Further, the “hFAP Binding assay k(on)” value at hFAP (M39-A757) was found to be 1700000 M⁻¹ s⁻¹. The compound further yielded a Kd at hFAP (M39-A757) of 0.099 nM. Also, the solubility in the data set “Kinetic solubility” (setting [5]) is 160 µM (≈ 70.6 µg/mL). In data set [3], the “rHep CLint” value is 120 μL/min/1E6. This compound also had a microsomal CLint in data set [4] (setting [6]) of 210 µL/min/mg.
Consider `CC[C@H]1COCCN1c1ccc2nccc(C(=O)NCC(=O)N3CSC[C@H]3C#N)c2c1` [Example 106, N-(2-((R)-4-Cyanothiazolidin-3-yl)-2-oxoethyl)-6-((S)-3-ethyl-morpholino)quinoline-4-carboxamide], for which the IC50 in data set [1] worked out at 520 nM. In addition, half-maximal inhibition against FAP (hFAP […]) (IC50) required 0.23 nM. On hFAP (M39-A757), the “hFAP Binding assay k(off)” value worked out at 0.00014 s⁻¹; the “hFAP Binding assay k(on)” value was found to be 1800000 M⁻¹ s⁻¹; the affinity, expressed as Kd, was 0.075 nM. Moreover, in “Kinetic solubility” (setting [5]), the solubility turned out to be 700 µM (≈ 308 µg/mL). The same compound showed an IC50 in data set [2] of 0.08 nM. Besides, the “rHep CLint” value in data set [3] came to 21 μL/min/1E6. This compound registered a microsomal CLint in data set [4] (setting [6]) of 47 µL/min/mg.
For `N#C[C@@H]1CSCN1C(=O)CNC(=O)c1ccnc2ccc(N3C[C@@H]4CC[C@H]3C4)cc12` (mixture of isomers) [Example 210, 6-((1RS,4SR)-2-Azabicyclo[2.2.1]heptan-2-yl)-N-(2-((R)-4-cyanothiazolidin-3-yl)-2-oxoethyl)quinoline-4-carboxamide], in data set [1], the IC50 is 220 nM. For the same compound, the IC50 against FAP (hFAP 0.24 nM) worked out at 0.44 nM. At hFAP (M39-A757), the “hFAP Binding assay k(off)” value was found to be 0.000098 s⁻¹, the “hFAP Binding assay k(on)” value is 3800000 M⁻¹ s⁻¹ and the Kd came out at 0.026 nM. In the data set “Kinetic solubility” (setting [5]), this compound yielded a solubility of 150 µM. For the same compound, the IC50 in data set [2] turned out to be 0.18 nM. Also, the “rHep CLint” value in data set [3] turned out to be 250 μL/min/1E6. In addition, the microsomal CLint in data set [4] (setting [6]) is 220 µL/min/mg.
Take `N#C[C@@H]1CSCN1C(=O)CNC(=O)c1ccnc2ccc(N3CC4(CC4)C[C@@H]3CF)cc12` [Example 58, N-(2-((R)-4-Cyanothiazolidin-3-yl)-2-oxoethyl)-6-((R)-6-(fluoromethyl)-5-azaspiro[2.4]heptan-5-yl)quinoline-4-carboxamide]: in data set [1], the IC50 amounted to 180 nM. The compound further showed an IC50 on FAP (hFAP […]) of 0.23 nM. Also, on hFAP (M39-A757), the “hFAP Binding assay k(off)” value came out at 0.091 s⁻¹, the “hFAP Binding assay k(on)” value turned out to be 8800000000 M⁻¹ s⁻¹ and binding was put at a Kd of 0.016 nM. Also, in “Kinetic solubility”, the solubility amounted to 5.8 µM (≈ 2.63 µg/mL). For the same compound, in data set [2], the IC50 turned out to be 0.076 nM. For the same compound, the “rHep CLint” value in data set [3] was 72 μL/min/1E6. In data set [4], this compound showed an intrinsic clearance (microsomal CLint) of 140 µL/min/mg.
With `CC(C)n1nccc1-c1ccc2nccc(C(=O)NCC(=O)N3CSC[C@H]3C#N)c2c1` [Example 197, (R)—N-(2-(4-Cyanothiazolidin-3-yl)-2-oxoethyl)-6-(1-isopropyl-1H-pyrazol-5-yl)quinoline-4-carboxamide], the IC50 in data set [1] is 1900 nM. Also, inhibition at FAP (hFAP […]) was half-maximal at 0.72 nM (IC50). In addition, on hFAP (M39-A757), the “hFAP Binding assay k(off)” value was 0.000066 s⁻¹, the “hFAP Binding assay k(on)” value is 88000 M⁻¹ s⁻¹ and binding was characterised by a dissociation constant (Kd) of 0.75 nM. The amount in solution in the data set “Kinetic solubility” (setting [5]) (solubility) came to 6 µM (≈ 2.61 µg/mL). Moreover, in data set [2], the IC50 turned out to be 0.42 nM. The “rHep CLint” value in data set [3] was 5.3 μL/min/1E6. In data set [4] (setting [6]), this compound came in with a microsomal CLint of 15 µL/min/mg.
Turning to `N#C[C@@H]1CSCN1C(=O)CNC(=O)c1ccnc2ccc(N3CC(Cc4ccc(Cl)cc4)C3)cc12` [Example 187, (R)-6-(3-(4-Chlorobenzyl)azetidin-1-yl)-N-(2-(4-cyanothiazolidin-3-yl)-2-oxoethyl)quinoline-4-carboxamide], the IC50 in data set [1] turned out to be 38 nM. In addition, on FAP (hFAP […]), inhibition was half-maximal at 0.098 nM (IC50). At hFAP (M39-A757), the “hFAP Binding assay k(off)” value amounted to 0.00022 s⁻¹, the “hFAP Binding assay k(on)” value turned out to be 3100000 M⁻¹ s⁻¹ and binding was put at a Kd of 0.07 nM. Further, in “Kinetic solubility” (setting [5]), the concentration in solution (solubility) came to 19 µM (≈ 9.61 µg/mL). The IC50 in data set [2] is 0.072 nM. The “rHep CLint” value in data set [3] is 140 μL/min/1E6. The microsomal CLint in data set [4] (setting [6]) was determined as 190 µL/min/mg.
For `N#C[C@@H]1CSCN1C(=O)CNC(=O)c1ccnc2ccc(-c3cccnc3)cc12` [Example 126, (R)—N-(2-(4-Cyanothiazolidin-3-yl)-2-oxoethyl)-6-(pyridin-3-yl)quinoline-4-carboxamide], the IC50 came out at 260 nM in data set [1], 0.32 nM on FAP (hFAP […]) and 0.081 nM in data set [2]. Besides, the “hFAP Binding assay k(off)” value on hFAP (M39-A757) was found to be 0.00021 s⁻¹. The “hFAP Binding assay k(on)” value at hFAP (M39-A757) was found to be 1800000 M⁻¹ s⁻¹. This compound had a Kd on hFAP (M39-A757) of 0.11 nM. In addition, the solubility in the data set “Kinetic solubility” (setting [5]) came to 400 µM (≈ 161 µg/mL). The “rHep CLint” value in data set [3] was 10 μL/min/1E6. Besides, the microsomal CLint in data set [4] (setting [6]) turned out to be 16 µL/min/mg.
In the case of `C[C@@H]1COC[C@H](C)N1c1cc2c(C(=O)NCC(=O)N3CSC[C@H]3C#N)ccnc2cc1Br` [Example 100, 7-Bromo-N-(2-((R)-4-cyanothiazolidin-3-yl)-2-oxoethyl)-6-((3S,5R)-3,5-dimethylmorpholino)quinoline-4-carboxamide], in data set [1], the half-maximal inhibitory concentration (IC50) amounted to 170 nM. Further, inhibition against FAP (hFAP […]) was half-maximal at 0.5 nM (IC50). Moreover, on hFAP (M39-A757), the “hFAP Binding assay k(off)” value amounted to 0.0022 s⁻¹, the “hFAP Binding assay k(on)” value worked out at 3000000 M⁻¹ s⁻¹ and the Kd was 0.73 nM. This compound returned a solubility in the data set “Kinetic solubility” (setting [5]) of 36 µM (≈ 18.7 µg/mL). In data set [2], this compound yielded an IC50 of 0.27 nM. In addition, the “rHep CLint” value in data set [3] was determined as 280 μL/min/1E6.
Consider `N#C[C@@H]1CSCN1C(=O)CNC(=O)c1ccnc2ccc(N3CCC[C@H](F)C3)cc12` (mixture of isomers) [Example 40, N-(2-((R)-4-Cyanothiazolidin-3-yl)-2-oxoethyl)-6-((RS)-3-fluoropiperidin-1-yl)quinoline-4-carboxamide], for which, in data set [1], the IC50 turned out to be 280 nM. Also, at FAP (hFAP 0.24 nM), the IC50 is 0.24 nM. On hFAP (M39-A757), the “hFAP Binding assay k(off)” value came out at 0.000046 s⁻¹, the “hFAP Binding assay k(on)” value was 1300000 M⁻¹ s⁻¹ and binding was put at a Kd of 0.043 nM. In data set [2], this compound registered an IC50 of 0.065 nM.
For `N#C[C@@H]1CSCN1C(=O)CNC(=O)c1ccnc2ccc(N3C[C@@H](F)[C@H](F)C3)cc12` [Example 214, N-(2-((R)-4-Cyanothiazolidin-3-yl)-2-oxoethyl)-6-((3R,4R)-3,4-difluoro-pyrrolidin-1-yl)quinoline-4-carboxamide], the IC50 in data set [1] was found to be 280 nM. The IC50 against FAP (hFAP […]) was found to be 0.2 nM. On hFAP (M39-A757), the “hFAP Binding assay k(off)” value came to 0.000092 s⁻¹, the “hFAP Binding assay k(on)” value came to 2900000 M⁻¹ s⁻¹ and binding was characterised by a dissociation constant (Kd) of 0.043 nM. For the same compound, the IC50 in data set [2] worked out at 0.079 nM. For the same compound, the “rHep CLint” value in data set [3] came to 15 μL/min/1E6.

By IC50 is commonly meant the concentration that gives 50% inhibition. A word on the Kd: it is the concentration at which binding is half-saturated. Lower therefore signals higher affinity. Broadly, the solubility is how much of the substance goes into solution per volume. A high value points to a readily soluble substance. One may read the microsomal CLint as a measure of how fast metabolising enzymes remove a compound, apart from limits set by blood flow. A lower microsomal CLint goes with slow turnover.

These data come from US20230312550A1, “N-(2-(4-CYANOTHIAZOLIDIN-3-YL)-2-OXOETHYL)-QUINOLINE-4-CARBOXAMIDES” (AstraZeneca AB, priority 2020, published 2023).
